Experimental data taken from PubChem BioAssay (NCI).
“And” between values parts separate entries of the source, which are not always exact repeats. Identical values can stand only once.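 The compound was tested at five concentrations on cells cultured in 96-well plates, with a 48-hour exposure period. Here, GI50 denotes the concentration required for 50% inhibition of growth. At the TGI there is no net growth.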

Key:
Assay in all cases: NCI anticancer screen, dose series, 48 h
786-0 renal = tested on: 786-0 renal
PC-3 prostate = tested on: PC-3 prostate
SF-539 CNS = tested on: SF-539 CNS
SK-MEL-28 melanoma = tested on: SK-MEL-28 melanoma
UACC-257 melanoma = tested on: UACC-257 melanoma
SF-268 CNS = tested on: SF-268 CNS
TK-10 renal = tested on: TK-10 renal
SNB-19 CNS = tested on: SNB-19 CNS
LOX IMVI melanoma = tested on: LOX IMVI melanoma
A498 renal = tested on: A498 renal

Row | SMILES | TGI (786-0 renal) | TGI (PC-3 prostate) | TGI (SF-539 CNS) | TGI (SK-MEL-28 melanoma) | TGI (UACC-257 melanoma) [µM] | TGI (SF-268 CNS) | TGI (TK-10 renal) | TGI (SNB-19 CNS) | TGI (LOX IMVI melanoma) | TGI (A498 renal) [µM] | GI50 (A498 renal) | GI50 (UACC-257 melanoma) | GI50 (SF-268 CNS) [µM]
1 | CCC1(O)CC(OC2CC(N(C)C)C(OC3CC(O)C(OC4CCC(=O)C(C)O4)C(C)O3)C(C)O2)c2c(O)c3c(c(O)c2C1C(=O)OC)C(=O)c1cccc(O)c1C3=O (stereo unspecified) | 0.218 µM and 0.449 µM | 0.252 µM and 0.132 µM | 0.127 µM and 0.0653 µM | 0.0837 µM and 0.0571 µM | 0.0915 | 0.32 µM and 0.973 µM | 0.392 µM and 0.211 µM | – | – | – | – | – | –
2 | C#CCCCC(=O)N(C(=O)CS(=O)CC)c1ccccc1 (stereo unspecified) | > 100 µM | > 100 µM | > 100 µM | > 100 µM | > 100 | > 100 µM | > 100 µM | > 100 µM | > 100 µM | – | – | – | –
3 | Cc1cccc(NC2=NCCO2)c1Cl | > 100 µM | – | > 100 µM | > 100 µM | > 100 | > 100 µM | > 100 µM | > 100 µM | – | > 100 | – | – | –
4 | O=S(=O)(/N=C(\NO)Nc1ccc(Cl)cc1)c1ccc(-c2ccccn2)s1 | – | > 100 µM | > 100 µM | > 100 µM | > 100 | > 100 µM | > 100 µM | > 100 µM | > 100 µM | – | – | – | –
5 | CN(CCO)/N=N/c1[nH]ncc1C(N)=O | – | – | > 100 µM | > 100 µM | > 100 | > 100 µM | – | > 100 µM | > 100 µM | > 100 | – | – | –
6 | c1ccc(CCn2cncn2)cc1 | – | – | > 100 µM | > 100 µM | > 100 | > 100 µM | > 100 µM | > 100 µM | – | – | – | – | –
7 | c1ccc(C2[C@@H]3CCCc4ccccc4C3=NN2c2ccccc2)cc1 (stereo partly specified) | > 100 µM | – | – | > 100 µM | > 100 | > 100 µM | > 100 µM | > 100 µM | > 100 µM | > 100 | – | – | –
8 | COc1cc2c(cc1OCCCCCOc1cc3c(cc1OC)C(=O)N1CCC[C@H]1CN3)N=C[C@@H]1CCCN1C2=O | 63.2 µM | 61.5 µM | 20.4 µM | 28.2 µM | 31.9 | 61.8 µM | 63.3 µM | > 100 µM | 3.06 µM | – | – | – | –
9 | COc1ccccc1NS(=O)(=O)c1ccc2ncn(NS(=O)(=O)c3ccc(Cl)cc3)c(=O)c2c1 | > 100 µM | > 100 µM | > 100 µM | > 100 µM | > 100 | > 100 µM | > 100 µM | > 100 µM | > 100 µM | – | – | – | –
10 | COc1cc2c(c(OC)c1OC)-c1ccc(SC)cc1C(=O)CC2 | > 100 µM | > 100 µM | < 0.01 µM | > 100 µM | – | – | > 100 µM | > 100 µM | > 100 µM | – | – | – | –
11 | CCCCCCCCCCSCC(CO)NC(=O)/C=C/c1c(C)[nH]c(=O)[nH]c1=O (stereo unspecified) | – | – | > 36.5 µM | > 50 µM | > 50 | 10.2 µM and > 21.4 µM | – | 13.7 µM and 12.4 µM | 23.8 µM and > 50 µM | > 50 | 1.98 µM and 4.94 µM | 1.77 µM and 3.82 µM | 0.895
12 | COc1ccc(C2C(Cl)C(=O)N2NC(=O)Cc2ccccc2)cc1OC (stereo unspecified) | > 100 µM | – | – | > 100 µM | > 100 | > 100 µM | > 100 µM | > 100 µM | > 100 µM | – | – | – | –
13 | CCN(CC)CCNc1ccc2ncn3c4cc(=O)ccc4c(O)c1c23 | 14.9 µM | – | 15.1 µM | 16.9 µM | 17.8 | 12.1 µM | 47.1 µM | 32 µM | 5.91 µM | 14 | – | – | –
14 | CN1B(c2ccccc2)N(C)C(=O)N(C)C1=O | > 100 µM | > 100 µM | > 100 µM | – | > 100 | > 100 µM | > 100 µM | > 100 µM | – | – | – | – | –
15 | O=C1C[C@H](c2ccc(O)c(O)c2)Oc2cc(O)cc(O)c21 | > 100 µM | – | > 100 µM | > 100 µM | > 100 | > 100 µM | > 100 µM | > 100 µM | > 100 µM | > 100 | – | – | –
16 | CC(=O)n1ccc2c(Cl)ncnc21 | > 100 µM | – | > 100 µM | > 100 µM | > 100 | > 100 µM | > 100 µM | > 100 µM | > 100 µM | > 100 | – | – | –
17 | COC(=O)C1C2CC3C(OC(=O)C31)C2OC(=O)[C@](OC)(c1ccccc1)C(F)(F)F (stereo partly specified) | > 100 µM | – | > 100 µM | > 100 µM | > 100 | > 100 µM | > 100 µM | > 100 µM | > 100 µM | > 100 | – | – | –
18 | OC(c1ccccc1)(c1cccnc1)C(O)(c1ccccc1)c1cccnc1 (stereo unspecified) | > 100 µM | > 100 µM | > 100 µM | – | > 100 | > 100 µM | > 100 µM | > 100 µM | – | – | – | – | –
19 | O=C1NC2(C=Cc3c(ccc4ccccc34)O2)Oc2ccccc21 (stereo unspecified) | > 100 µM | – | 50.2 µM | > 100 µM | – | 58.3 µM | > 100 µM | 79.1 µM | 39.9 µM | – | – | – | –
20 | CC(C)(C)OC(=O)N1N=NC2C3OC(CC3=O)C21 (stereo unspecified) | > 100 µM | – | > 100 µM | > 100 µM | > 100 | > 100 µM | > 100 µM | > 100 µM | > 100 µM | > 100 | – | – | –
